Paper PMC12615753, “Glutathione as a taste modulator: molecular mechanisms of interaction with umami and sweet taste receptors” (Food Chemistry: Molecular Sciences, 2025)

Biological target: T1, hTAS1R1 H308A/rTAS1R3 (Homo sapiens, UniProt Q7RTX1, H308A)
T1 construct: UniProtKB number Q7RTX1–1); expressed in transfected cells; host or cells: HEK293T/17 (ATCC CRL-11268)
T1 sequence (Q7RTX1 21-841 H308A): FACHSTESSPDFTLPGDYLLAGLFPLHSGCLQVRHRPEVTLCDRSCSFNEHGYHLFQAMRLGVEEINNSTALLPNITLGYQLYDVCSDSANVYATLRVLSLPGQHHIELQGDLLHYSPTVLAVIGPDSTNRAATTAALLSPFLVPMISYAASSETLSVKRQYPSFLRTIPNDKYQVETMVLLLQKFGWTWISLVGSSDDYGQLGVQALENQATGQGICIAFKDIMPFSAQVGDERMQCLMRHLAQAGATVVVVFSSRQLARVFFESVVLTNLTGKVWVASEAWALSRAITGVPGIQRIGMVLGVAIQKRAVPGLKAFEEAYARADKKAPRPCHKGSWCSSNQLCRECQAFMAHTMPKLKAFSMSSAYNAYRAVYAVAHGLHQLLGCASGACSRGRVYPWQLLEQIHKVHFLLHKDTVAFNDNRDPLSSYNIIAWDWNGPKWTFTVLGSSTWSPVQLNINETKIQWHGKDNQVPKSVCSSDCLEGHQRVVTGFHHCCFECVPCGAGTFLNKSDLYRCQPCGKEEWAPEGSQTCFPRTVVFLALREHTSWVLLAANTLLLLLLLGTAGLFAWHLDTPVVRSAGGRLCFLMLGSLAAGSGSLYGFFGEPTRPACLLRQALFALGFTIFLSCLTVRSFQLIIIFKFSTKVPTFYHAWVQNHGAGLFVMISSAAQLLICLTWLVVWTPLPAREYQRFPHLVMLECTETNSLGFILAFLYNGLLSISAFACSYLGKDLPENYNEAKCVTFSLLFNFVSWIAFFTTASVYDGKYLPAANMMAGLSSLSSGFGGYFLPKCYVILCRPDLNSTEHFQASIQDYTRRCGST
T1 sequence (Q923K1 21-858 partner): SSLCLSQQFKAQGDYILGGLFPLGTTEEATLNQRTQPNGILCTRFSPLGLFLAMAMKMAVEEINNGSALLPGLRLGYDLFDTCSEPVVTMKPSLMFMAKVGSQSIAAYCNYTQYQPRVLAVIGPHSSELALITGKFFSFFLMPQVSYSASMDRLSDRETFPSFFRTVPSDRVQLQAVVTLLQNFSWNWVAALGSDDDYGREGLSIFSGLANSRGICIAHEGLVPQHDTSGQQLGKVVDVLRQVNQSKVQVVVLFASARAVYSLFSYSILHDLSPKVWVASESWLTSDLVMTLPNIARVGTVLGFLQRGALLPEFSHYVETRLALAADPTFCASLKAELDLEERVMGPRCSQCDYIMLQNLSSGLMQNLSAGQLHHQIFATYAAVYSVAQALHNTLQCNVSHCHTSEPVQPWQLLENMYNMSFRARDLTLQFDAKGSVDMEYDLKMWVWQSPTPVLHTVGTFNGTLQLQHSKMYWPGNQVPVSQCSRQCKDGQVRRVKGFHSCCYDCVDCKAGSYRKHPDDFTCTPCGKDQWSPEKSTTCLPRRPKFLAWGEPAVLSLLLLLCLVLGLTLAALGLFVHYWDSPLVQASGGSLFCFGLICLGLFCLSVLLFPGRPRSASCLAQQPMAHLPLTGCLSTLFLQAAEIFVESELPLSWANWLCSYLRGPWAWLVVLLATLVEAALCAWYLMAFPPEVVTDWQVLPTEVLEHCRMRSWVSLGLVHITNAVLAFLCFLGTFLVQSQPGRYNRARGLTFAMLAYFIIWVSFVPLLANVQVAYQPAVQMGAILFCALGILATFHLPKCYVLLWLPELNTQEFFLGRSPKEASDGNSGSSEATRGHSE
Assay: Calcium assay, hTAS1R1 mutant co-expressed with rTAS1R3
Assay type: cell-based, rat

response to the agonist alone, vs WT (H308A) | Compound | EC50 [mM] | effect of the added compound (1 mM) on the response to L-Glu (H308A) | Max ∆F/F0 (H308A, GSH) | R1 = mutant EC50/WT EC50 (H308A, GSH)
 | N[C@@H](CCC(=O)N[C@@H](CS)C(=O)NCC(=O)O)C(=O)O [GSH, γ-L-glutamyl-L-cysteinyl-glycine] | 3.25 ± 0.225 | synergy was observed | 0.42 ± 0.01 | 1.3
strongly affected | CCCC(CCC)NC(=O)c1ccc2c(c1)OCO2 [S807, N-(heptan-4-yl)benzo[d][1,3]dioxole-5-carboxamide, reference compound] |  |  |  | 
